Measurements reported in patent US9617244B2, “Antibacterial quinoline derivatives” (JANSSEN PHARMACEUTICA NV, priority 2012, dated 2017).
Values after ≈ are worked out from the molar mass of the structure shown.

Test system: Mycobacterium smegmatis (ATCC607)
Assay: In-vitro anti-bacterial activity against strain M. Smegmatis ATCC607
Type: cell-based
Conditions: 90% inhibitory concentration for bacterial growth, 48 hours, Alamar Blue fluorescence
Method: D.1. In-Vitro Method for Testing Compounds for Anti-Bacterial Activity Against Strain M. Smegmatis ATCC607
Flat-bottom, sterile 96-well plastic microtiter plates were filled with 180 μl of sterile deionized water, supplemented with 0.25% BSA. Subsequently, stock solutions (7.8× final test concentration) of compounds were added in 45 μl volumes to a series of duplicate wells in column 2 so as to allow evaluation of their effects on bacterial growth. Serial five-fold dilutions (45 μl in 180 μl) were made directly in the microtiter plates from column 2 to 11 using a customised robot system (Zymark Corp., Hopkinton, Mass.). Pipette tips were changed after every 3 dilutions to minimize pipetting errors with high hydrophobic compounds. Untreated control samples with (column 1) and without (column 12) inoculum were included in each microtiter plate. Approximately 250 CFU per well of bacteria inoculum, in a volume of 100 μl in 2.8× Mueller-Hinton broth medium, was added to the rows A to H, except column 12. The same volume of broth medium without inoculum was added to column 12 in row A to H. The cultures were incubated at 37° C. for 48 hours in a humidified 5% CO2 atmosphere (incubator with open air valve and continuous ventilation). At the end of incubation, two days after inoculation, the bacterial growth was quantitated fluorometrically. Therefore Alamar Blue (10×) was added to all wells in a volume of 20 μl and plates were incubated for another 2 hours at […]
The fluorescence was read in a computer-controlled fluorometer (Cytofluor, Biosearch) at an excitation wavelength of 530 nm and an emission wavelength of 590 nm (gain 30). The percentage growth inhibition achieved by the compounds was calculated according to standard methods and expressed as IC90 (μg/ml) which defines the 90% inhibitory concentration for bacterial growth.

Row | SMILES | IC90 MSM 607
1 | COc1nc2ccc(SC)cc2cc1C(c1ccccc1)C1(O)CCNC(Cc2ccccc2)C1 (stereo not shown) [Compound 141] | 4.37 µg/mL (≈ 9.02 µM)
2 | Cc1cc(F)ccc1C1CC(O)(C(c2cccc(Cl)c2)c2cc3cc(Br)ccc3[nH]c2=O)CCN1 (stereo not shown) [Compound 143] | 2.04 µg/mL (≈ 3.67 µM)
3 | Cc1cc(F)ccc1C1CC(O)(C(c2cccc(Cl)c2)c2cc3cc(Br)ccc3[nH]c2=O)CCN1 (stereo not shown) [Compound 144] | 3.24 µg/mL (≈ 5.83 µM)
4 | Cc1cc(F)ccc1C1CC(O)(C(c2cccc(Cl)c2)c2cc3cc(Br)ccc3[nH]c2=O)CCN1 (stereo not shown) [Compound 145] | 2.32 µg/mL (≈ 4.17 µM)
5 | Cc1cc(F)ccc1C1CC(O)(C(c2cccc(Cl)c2)c2cc3cc(Br)ccc3[nH]c2=O)CCN1 (stereo not shown) [Compound 146] | 1.87 µg/mL (≈ 3.36 µM)
6 | COc1nc2ccc(SC)cc2cc1C(c1cccc(Cl)c1)C1(O)CCNC(c2ccc(F)cc2C)C1 (stereo not shown) [Compound 147] | 1.51 µg/mL (≈ 2.81 µM)
7 | COc1nc2ccc(SC)cc2cc1C(c1cccc(Cl)c1)C1(O)CCNC(c2ccc(F)cc2C)C1 (stereo not shown) [Compound 148] | 1.70 µg/mL (≈ 3.17 µM)
8 | COc1nc2ccc(Br)cc2cc1C(c1cccc(Cl)c1)C1(O)CCNC(c2ccc(F)cc2C)C1 (stereo not shown) [Compound 149] | 2.52 µg/mL (≈ 4.42 µM)
9 | COc1nc2ccc(Br)cc2cc1C(c1cccc(Cl)c1)C1(O)CCNC(c2ccc(F)cc2C)C1 (stereo not shown) [Compound 150] | 1.66 µg/mL (≈ 2.91 µM)
10 | COc1nc2ccc(Br)cc2cc1C(c1cccc(Cl)c1)C1(O)CCNC(c2ccc(F)cc2C)C1 (stereo not shown) [Compound 151] | 2.35 µg/mL (≈ 4.12 µM)
11 | COc1nc2ccc(Br)cc2cc1C(c1cccc(Cl)c1)C1(O)CCNC(c2ccc(F)cc2C)C1 (stereo not shown) [Compound 152] | 1.76 µg/mL (≈ 3.09 µM)
12 | Cc1cc(F)ccc1C1CC(O)(C(c2cccc(Cl)c2)c2cc3cc(S(C)(=O)=O)ccc3[nH]c2=O)CCN1 (stereo not shown) [Compound 159] | >14.69 µg/mL
13 | CSc1ccc2[nH]c(=O)c(C(c3cccc(Cl)c3)C3(O)CCNC(c4ccc(F)cc4C)C3)cc2c1 (stereo not shown) [Compound 160] | 2.48 µg/mL (≈ 4.74 µM)
14 | CSc1ccc2[nH]c(=O)c(C(c3cccc(Cl)c3)C3(O)CCNC(c4ccc(F)cc4C)C3)cc2c1 (stereo not shown) [Compound 161] | 6.90 µg/mL (≈ 13.2 µM)
15 | CSc1ccc2[nH]c(=O)c(C(c3cccc(Cl)c3)C3(O)CCNC(c4ccc(F)cc4C)C3)cc2c1 (stereo not shown) [Compound 162] | 2.49 µg/mL (≈ 4.76 µM)

Same assay, conditions: Mycolicibacterium smegmatis, ATCC607, 48 h, 90% inhibitory concentration for bacterial growth, Alamar Blue fluorescence, read-out: IC90 MSM 607

Row | SMILES | IC90
16 | O=c1[nH]c2ccc(Br)cc2cc1C(c1cccc(Cl)c1)C1(O)CCNC(Cc2ccccc2)C1 (stereo not shown) [Compound 85] | 3.62 µg/mL (≈ 6.73 µM)
17 | CSc1nc2ccc(Br)cc2cc1C(c1ccc(Cl)cc1)C1(O)CCNC(Cc2ccccc2)C1 (stereo not shown) [Compound 89] | 1.8 µg/mL (≈ 3.17 µM)
18 | COc1nc2ccc(C(=O)O)cc2cc1C(c1ccc(Cl)cc1)C1(O)CCNC(Cc2ccccc2)C1 (stereo not shown) [Compound 118] | > 20.6 µg/mL
19 | O=c1[nH]c2ccc(Br)cc2cc1C(c1ccc(Cl)cc1)C1(O)CCNC(Cc2ccccc2)C1 (stereo not shown) [Compound 128] | 3.62 µg/mL (≈ 6.73 µM)
20 | CC1CC(O)(C(c2ccc(Cl)cc2)c2cc3cc(Br)ccc3[nH]c2=O)CCN1 (stereo not shown) [Compound 129] | 7.9 µg/mL (≈ 17.1 µM)

Test system: Staphylococcus aureus (ATCC29213)
Assay: In-vitro anti-bacterial activity, microtitre plate assay, IC90 determination (non-mycobacterial strains)
Type: cell-based
Conditions: 90% inhibitory concentration for bacterial growth, 24 hours, resazurin fluorescence
Method: D.2. In-Vitro Method for Testing Compounds for Anti-Bacterial Activity Against Various Non-Mycobacterial Strains
Preparation of Bacterial Suspensions for Susceptibility Testing:
The bacteria used in this study were grown overnight in flasks containing 100 ml Mueller-Hinton Broth (Becton Dickinson—cat. no. 275730) in sterile de-ionized water, with shaking, at 37° C. Stocks (0.5 ml/tube) were stored at −70° C. until use. Bacteria titrations were performed in microtiter plates to detect the TCID50, in which TCID50 represents the dilution that gives rise to bacterial growth in 50% of inoculated cultures. In general, an inoculum level of approximately 100 TCID50 was used for susceptibility testing.
Anti Bacterial Susceptibility Testing: IC90 Determination
Flat-bottom, sterile 96-well plastic microtiter plates were filled with 180 μl of sterile deionized water, supplemented with 0.25% BSA. Subsequently, stock solutions (7.8× final test concentration) of compounds were added in 45 μl volumes in column 2 Serial five-fold dilutions (45 μl in 180 μl) were made directly in the microtiter plates from column 2 to reach column 11. Untreated control samples with (column 1) and without (column 12) inoculum were included in each microtiter plate. Depending on the bacteria type, approximately 10 to 60 CFU per well of bacteria inoculum (100 TCID50), in a volume of 100 μl in 2.8× Mueller-Hinton broth medium, was added to the rows A to H, except column 12. The same volume of broth medium without inoculum was added to column 12 in row A to H. The cultures were incubated at 37° C. for 24 hours under a normal atmosphere (incubator with open air valve and continuous ventilation). At the end of incubation, one day after inoculation, the bacterial growth was quantitated fluorometrically. Therefore resazurin (0.6 mg/ml) was added in a volume of 20 μl to all wells 3 hours after inoculation, and the plates were re-incubated overnight. A change in colour from blue to pink indicated the growth of bacteria. The fluorescence was read in a computer-controlled fluorometer (Cytofluor Biosearch) at an excitation wavelength of 530 nm and an emission wavelength of 590 nm. The % growth inhibition achieved by the compounds was calculated according to standard methods. The IC90 (expressed in μg/ml) was defined as the 90% inhibitory concentration for bacterial growth.

Row | SMILES | IC90 STA B29213
21 | O=c1[nH]c2ccc(Br)cc2cc1C(c1cccc(Cl)c1)C1(O)CCNC(Cc2ccccc2)C1 (stereo not shown) [Compound 85] | 7.23 µg/mL (≈ 13.4 µM)
22 | O=c1[nH]c2ccc(Br)cc2cc1C(c1ccc(Cl)cc1)C1(O)CCNC(Cc2ccccc2)C1 (stereo not shown) [Compound 128] | 4.56 µg/mL (≈ 8.48 µM)
23 | COc1nc2ccc(SC)cc2cc1C(c1ccccc1)C1(O)CCNC(Cc2ccccc2)C1 (stereo not shown) [Compound 141] | 7.77 µg/mL (≈ 16 µM)
24 | Cc1cc(F)ccc1C1CC(O)(C(c2cccc(Cl)c2)c2cc3cc(Br)ccc3[nH]c2=O)CCN1 (stereo not shown) [Compound 143] | 1.82 µg/mL (≈ 3.27 µM)
25 | Cc1cc(F)ccc1C1CC(O)(C(c2cccc(Cl)c2)c2cc3cc(Br)ccc3[nH]c2=O)CCN1 (stereo not shown) [Compound 144] | 3.63 µg/mL (≈ 6.53 µM)
26 | Cc1cc(F)ccc1C1CC(O)(C(c2cccc(Cl)c2)c2cc3cc(Br)ccc3[nH]c2=O)CCN1 (stereo not shown) [Compound 145] | 2.92 µg/mL (≈ 5.25 µM)
27 | Cc1cc(F)ccc1C1CC(O)(C(c2cccc(Cl)c2)c2cc3cc(Br)ccc3[nH]c2=O)CCN1 (stereo not shown) [Compound 146] | 2.35 µg/mL (≈ 4.23 µM)
28 | COc1nc2ccc(SC)cc2cc1C(c1cccc(Cl)c1)C1(O)CCNC(c2ccc(F)cc2C)C1 (stereo not shown) [Compound 147] | 3.39 µg/mL (≈ 6.31 µM)
29 | COc1nc2ccc(SC)cc2cc1C(c1cccc(Cl)c1)C1(O)CCNC(c2ccc(F)cc2C)C1 (stereo not shown) [Compound 148] | 3.39 µg/mL (≈ 6.31 µM)
30 | COc1nc2ccc(Br)cc2cc1C(c1cccc(Cl)c1)C1(O)CCNC(c2ccc(F)cc2C)C1 (stereo not shown) [Compound 149] | 5.63 µg/mL (≈ 9.88 µM)
31 | COc1nc2ccc(Br)cc2cc1C(c1cccc(Cl)c1)C1(O)CCNC(c2ccc(F)cc2C)C1 (stereo not shown) [Compound 150] | 2.63 µg/mL (≈ 4.61 µM)
32 | COc1nc2ccc(Br)cc2cc1C(c1cccc(Cl)c1)C1(O)CCNC(c2ccc(F)cc2C)C1 (stereo not shown) [Compound 151] | 5.26 µg/mL (≈ 9.23 µM)
33 | COc1nc2ccc(Br)cc2cc1C(c1cccc(Cl)c1)C1(O)CCNC(c2ccc(F)cc2C)C1 (stereo not shown) [Compound 152] | 2.78 µg/mL (≈ 4.88 µM)
34 | Cc1cc(F)ccc1C1CC(O)(C(c2cccc(Cl)c2)c2cc3cc(S(C)(=O)=O)ccc3[nH]c2=O)CCN1 (stereo not shown) [Compound 159] | >14.69 µg/mL
35 | CSc1ccc2[nH]c(=O)c(C(c3cccc(Cl)c3)C3(O)CCNC(c4ccc(F)cc4C)C3)cc2c1 (stereo not shown) [Compound 160] | 3.51 µg/mL (≈ 6.71 µM)
36 | CSc1ccc2[nH]c(=O)c(C(c3cccc(Cl)c3)C3(O)CCNC(c4ccc(F)cc4C)C3)cc2c1 (stereo not shown) [Compound 161] | 6.90 µg/mL (≈ 13.2 µM)
37 | CSc1ccc2[nH]c(=O)c(C(c3cccc(Cl)c3)C3(O)CCNC(c4ccc(F)cc4C)C3)cc2c1 (stereo not shown) [Compound 162] | 3.52 µg/mL (≈ 6.73 µM)

Same assay, conditions: Staphylococcus aureus, ATCC29213, 24 h, 90% inhibitory concentration for bacterial growth, resazurin fluorescence, read-out: IC90 STA B29213

Row | SMILES | IC90
38 | CSc1nc2ccc(Br)cc2cc1C(c1ccc(Cl)cc1)C1(O)CCNC(Cc2ccccc2)C1 (stereo not shown) [Compound 89] | 3.58 µg/mL (≈ 6.3 µM)
39 | COc1nc2ccc(C(=O)O)cc2cc1C(c1ccc(Cl)cc1)C1(O)CCNC(Cc2ccccc2)C1 (stereo not shown) [Compound 118] | > 20.6 µg/mL
40 | CC1CC(O)(C(c2ccc(Cl)cc2)c2cc3cc(Br)ccc3[nH]c2=O)CCN1 (stereo not shown) [Compound 129] | 12.5 µg/mL (≈ 27.1 µM)
